How the values were obtained:
Conditions in all cases: lowest tested rate giving 80% or greater inhibition, approx. 14 days after planting and treating, greenhouse
DIGSA = assay: Pre-emergence herbicidal activity on DIGSA (large crabgrass); format: in vivo, Digitaria sanguinalis
From the text: (§1) All such uses, and the biological activity enabling such uses, are embraced by the term “herbicidal” herein. Tables 15 and 16 summarize results of tests conducted as described below to determine the pre-emergence herbicidal activity, in the form of a GR80 value, of illustrative compounds of this invention. […] Where herbicidal activity was evident but 80% inhibition was not achieved at the highest rate tested (typically 1000 g/ha), an asterisk (*) is shown in the following tables. Herbicidal activity evident in the form of symptoms of phytotoxicity, in the absence of at least 80% inhibition at any rate, is indicated in the tables by “phyto”. A blank cell in the following tables indicates no herbicidal or phytotoxic response at any rate tested.
(§2) The pre-emergence tests were conducted by the following procedure. Topsoil was sieved to pass through a 1.27 cm screen. Fertilizer was added to the topsoil and the mixture was then sterilized by heating. The topsoil mixture was placed in a pot and compacted to a depth of 1.0 to 1.25 cm from the top of the pot. Seeds of each of several monocotyledonous and dicotyledonous annual plant species were placed on top of the soil. Additional soil was subsequently placed over the seeds to level-fill the pot. A known amount of each test compound dissolved or suspended in an appropriate organic solvent was diluted with a 50:50 mix of acetone and water and applied to the surface of the soil. After treatment the plants were placed in a greenhouse with a 30/21° C. day/night temperature regime where they received 0.64 cm of overhead irrigation. All subsequent watering consisted of a light overhead mist and/or subirrigation as needed for germination and growth.
(§3) Approximately 14 days after planting and treating, the plants were observed and herbicidal efficacy recorded as percent inhibition by comparison with untreated plants.
(§4) The plant species usually regarded as weeds which were utilized in the tests are identified in the tables below according to the following legend, in which “d” indicates a dicotyledonous species and “m” a monocotyledonous species. All monocotyledonous species included in the tests herein are grasses.

CIRAR = assay: Pre-emergence herbicidal activity on CIRAR (canada thistle, seedling); format: in vivo, Cirsium arvense
From the text: as §1, §2, §3, §4

AMARE = assay: Pre-emergence herbicidal activity on AMARE (redroot pigweed); format: in vivo, Amaranthus retroflexus
From the text: as §1, §2, §3, §4

BRAPP = assay: Pre-emergence herbicidal activity on BRAPP (broadleaf signalgrass); format: in vivo, Brachiaria platyphylla
From the text: as §1, §2, §3, §4

POROL = assay: Pre-emergence herbicidal activity on POROL (common purslane); format: in vivo, Portulaca oleracea
From the text: as §1, §2, §3, §4

CHEAL = assay: Pre-emergence herbicidal activity on CHEAL (common lambsquarters); format: in vivo, Chenopodium album
From the text: as §1, §2, §3, §4

DATST = assay: Pre-emergence herbicidal activity on DATST (jimsonweed); format: in vivo, Datura stramonium
From the text: as §1, §2, §3, §4

ABUTH = assay: Pre-emergence herbicidal activity on ABUTH (velvetleaf); format: in vivo, Abutilon theophrasti
From the text: as §1, §2, §3, §4

PANMI = assay: Pre-emergence herbicidal activity on PANMI (wild proso millet); format: in vivo, Panicum miliaceum
From the text: as §1, §2, §3, §4

SETFA = assay: Pre-emergence herbicidal activity on SETFA (giant foxtail); format: in vivo, Setaria faberi
From the text: as §1, §2, §3, §4

ECHCG = assay: Pre-emergence herbicidal activity on ECHCG (barnyardgrass); format: in vivo, Echinochloa crus-galli
From the text: as §1, §2, §3, §4

CONAR = assay: Pre-emergence herbicidal activity on CONAR (field bindweed); format: in vivo, Convolvulus arvensis
From the text: as §1, §2, §3, §4

PANDI = assay: Pre-emergence herbicidal activity on PANDI (fall panicum); format: in vivo, Panicum dichotomiflorum
From the text: as §1, §2, §3, §4

SORHA = assay: Pre-emergence herbicidal activity on SORHA (johnsongrass, seedling); format: in vivo, Sorghum halepense
From the text: as §1, §2, §3, §4

SOLNI = assay: Pre-emergence herbicidal activity on SOLNI (black nightshade); format: in vivo, Solanum nigrum
From the text: as §1, §2, §3, §4

Row | SMILES | Pre-emergence activity (GR80) on DIGSA (DIGSA) [g/ha] | Pre-emergence activity (GR80) on CIRAR (CIRAR) [g/ha] | Pre-emergence activity (GR80) on AMARE (AMARE) [g/ha] | Pre-emergence activity (GR80) on BRAPP (BRAPP) [g/ha] | Pre-emergence activity (GR80) on PORAL (POROL) [g/ha] | Pre-emergence activity (GR80) on CHEAL (CHEAL) [g/ha] | Pre-emergence activity (GR80) on DATST (DATST) | Pre-emergence activity (GR80) on ABUTH (ABUTH) | Pre-emergence activity (GR80) on PANMI (PANMI) | Pre-emergence activity (GR80) on SETFA (SETFA) | Pre-emergence activity (GR80) on ECHCG (ECHCG) | Pre-emergence activity (GR80) on CONAR (CONAR) | Pre-emergence activity (GR80) on PANDI (PANDI) [g/ha] | Pre-emergence activity (GR80) on SORHA (SORHA) | Pre-emergence activity (GR80) on SOLNI (SOLNI) [g/ha]
1 | CC(CNC(=O)c1cccc(C(F)(F)F)c1)NC(=O)c1cccc(F)c1Cl (centres unmarked) [Example 37] | 250 | 250 | 64 | 500 | 64 | 125 | 250 g/ha | 250 g/ha | 500 g/ha | 250 g/ha | 1000 g/ha | 250 g/ha | 250 | 1000 g/ha | 250
2 | C[C@H](CNC(=O)c1cccc(C(F)(F)F)c1)NC(=O)Oc1cccc(C(F)(F)F)c1 [Example 229, R—N-[1-methyl-2-(3-trifluoromethyl)phenylcarbonylamino]ethyl-3-(trifluoromethyl)phenylcarbamate] | 1000 | 300 | 300 | – | 100 | 300 | phyto | * (Where herbicidal activity was evident but 80% inhibition was not achieved at the highest rate tested (typically 1000 g/ha), an asterisk (*) is shown) | phyto | phyto | phyto | phyto | 300 | phyto | 1000
3 | CC(CNC(=O)c1cccc(C(F)(F)F)c1)NC(=O)c1cccc(Br)c1F (centres unmarked) [Example 56] | 64 | 32 | 64 | 500 | 32 | 32 | 250 g/ha | 500 g/ha | 125 g/ha | 125 g/ha | 750 g/ha | * (Where herbicidal activity was evident but 80% inhibition was not achieved at the highest rate tested (typically 1000 g/ha), an asterisk (*) is shown) | 250 | 750 g/ha | 64
4 | Cc1cccc(C(=O)NC(C)CNC(=O)c2cccc(C(F)(F)F)c2)c1C (centres unmarked) [Example 67] | 500 | 500 | 500 | 1000 | 500 | 250 | 500 g/ha | 500 g/ha | – | 750 g/ha | * (Where herbicidal activity was evident but 80% inhibition was not achieved at the highest rate tested (typically 1000 g/ha), an asterisk (*) is shown) | 1000 g/ha | 500 | – | –

Reference: US20020052295A1, “Diacyl derivatives of propylene diamine having herbicidal activity” (priority 1999, published 2002)
